For series [1], the system named is Enterococcus faecium LWP 50-52. Description: Influence of signal peptide on bacteriocin 50-52 production, flask culture (fraction protein at 215 nm, activity by spot-test against C. jejuni and S. enteritidis). It is filed as cell-based.
A further series concerns C. jejuni. The experiment in a line: Spot Test, antagonistic activity of isolated signal peptides. In kind it is cell-based, Campylobacter jejuni. The note with it: isolated signal peptide. The method, then: (§1) The antagonistic activity of the bacteriocins produced when using the signal peptide and an inducer strain of bacteria against C. jejuni and S. enteritidis was assessed using a Spot Test. The steps included taking various concentrations of pure preparation (μg/ml) of the bacteriocin in approximately 10 microliters of volume plated onto blood-supplemented Campylobacter agar or Nutrient agar (MPA or Meta Peptone Agar) previously seeded with cells of target bacteria. Plates containing cultures of C. jejuni were grown at about 42° C., under microaerobic conditions. Plates containing S. enteritidis were grown at about 37° C. under aerobic conditions. Activity of the bacteriocin was expressed in arbitrary units (AU) per one milliliter of the preparation at which a visible zone of inhibition of the growth of culture appears (Henderson et al., Archives of Biochemistry and Biophysics, Volume 295, 5-12, 1992; herein incorporated by reference). Specific activity can also expressed as arbitrary units per milligram of pure bacteriocin.
(§2) Its activity was about 200 AU/ml and its molecular weight was about 2.5 kDa, as determined by SDS-PAGE electrophoresis. The isoelectric point (pI) was about 7.9 (FIGS. 1A and 1B).
(§3) Its molecular weight was about 3.1 kDa as measured by SDS-PAGE and the isoelectric point (pI) was about 8.1 (FIGS. 2A and 2B).
(§4) Its molecular weight was about 2.1 kDa as determined by SDS-PAGE electrophoresis and its isoelectric point was about 8.9 (FIGS. 3A and 3B).

The test system of series [2] is Streptococcus cricetus LWP 760. The experiment in a line: Influence of signal peptide on bacteriocin 760 production, flask culture (fraction protein at 215 nm, activity by Spot Test against C. jejuni and S. enteritidis). It is filed as cell-based.
The subject of series [3] is Lactobacillus salivarius PVD-32. The experiment in a line: Bacteriocin OR-7 production with signal peptide under scaled up conditions (bioreactor). In kind it is cell-based. To be noted: V-61 reactor, 10% Brucella Broth, PVD-32, LWP252, peptide 0.2 mg, pH 6.9, 37° C., 14 hours.
Series [4] is described as follows: Isoelectric point by isoelectrofocusing. It is filed as physicochemical. The source says:
(§5) FIGS. 1A and 1B are photographs showing the direct detection of signal peptide and bacteriocin OR-7 after SDS-PAGE (A) and isoelectrofocusing (B). […] In FIG. 1A Lane 1-Molecular Mass Markers LMW Range 2,100-12,500 (Amersham Pharmacia Biotech): 2,100; 5,780; 8,400; 12,500 Da. […] Lane 3 contained pI standards (Protein Test Mixture, I Marker Proteins, Serva): 10.0, 9.2, 8.1, 6.9, 5.5, 4.3.
(§6) FIGS. 2A and 2B are photographs showing direct detection of signal peptide and bacteriocin 50-52 after SDS-PAGE (A) and isoelectrofocusing (B). […] Lane 3 contained pI standards (Protein Test Mixture, I Marker Proteins, Serva): 10.0, 8.1, 7.9, 6.4, 5.5, 4.3, 4.1, and 3.8.
(§7) FIGS. 3A and 3B are photographs showing the direct detection of signal peptide and bacteriocin 760 after SDS-PAGE(A) and isoelectrofocusing (B). […] Lane 3 contained pI standards (Protein Test Mixture, I Marker Proteins, Serva): 10.0, 8.1, 7.9, 6.4, 5.5, 4.3, 4.1, and 3.8.
At the end of 14 hours the supernatant from the cultures was placed into 500 ml centrifuge flasks with about one milliliter of regenerated Sepharose SP Fast Flow (v/v 500: 1). This was incubated for approximately 1 hour at room temperature with stirring. The suspension was then washed with about 100 ml of a 0.2 M TRIS-HCl buffer pH approximately 6.4. The bacteriocins were eluted by centrifugation with about 100 ml of approximately 0.2 M K2HPO4, pH of about 5.8 at about 7,000×g for approximately 10 minutes. Antagonistic activity of the bacteriocin fractions against C. jejuni and S. enteritidis was assessed using a Spot Test as described above. The level of purity of the bacteriocin fractions was determined by SDS-PAGE. The isoelectric points of the fractions were determined by isoelectric focusing. Concentrations of protein for all bacteriocin fractions were determined at 215 nm using a spectrophotometer.

Another series has as its system S. enteritidis. Description: Spot Test, antagonistic activity of isolated signal peptides. It is filed as cell-based. The note with it: isolated signal peptide. How it is done:
as §1, §2, §3, §4

In series [5] the test system is Lactobacillus salivarius PVD-32. Description: Influence of signal peptide on bacteriocin OR-7 production, flask culture (fraction protein at 215 nm, activity by Spot Test against C. jejuni and S. enteritidis). It is filed as cell-based. To be noted: for Activity / Protein Concentration / Protein increase vs. Control / Specific Activity / mg protein/liter: 10% B-B.
The test system of another series is Campylobacter jejuni. The experiment in a line: Direct detection of antimicrobial activity: SDS-PAGE / isoelectrofocusing gel overlaid with Campylobacter jejuni. In kind it is cell-based.
Source text: as §5, §6, §7

[6] abbreviates: LWP 50-52 + LWP 320, PVD-32 peptide 0.1 mg/ml.
Setting [7] is: LWP 760 + LWP320, 0.1 mg PVD 32 peptide.
Setting [8] is: producer PVD32, no inducer, peptide 0.1 mg.
[9] abbreviates: producer PVD-32 + inducer LWP-252, peptide 0.001 mg.
Setting [10] is: producer PVD-32 + inducer LWP-252, peptide 0.01 mg.
[11] abbreviates: producer PVD-32 + inducer LWP-252, peptide 0.1 mg.
The mark [12] stands for this setting: producer PVD-32, no inducer, peptide 0.001 mg.
Setting [13] is: producer PVD-32, no inducer, peptide 0.01 mg.

Take “MVTKSLVLAWVVALLACGMVKGLT (listed as Lactobacillus salivarius) [PVD-32 Signal Peptide, signal peptide isolated from Lactobacillus salivarius PVD-32, stimulates bacteriocin OR-7 production]”: the Activity in series [1] (setting [6]) was 819,200 AU/ml; with C. jejuni, “about 200 AU/ml”; in series [2] (setting [7]) it was 1,638,840 AU/ml; in series [3], 3,276,800 AU/ml; in the series on S. enteritidis it was “about 200 AU/ml”; in series [5] (setting [8]), 102,400 AU/ml. Moreover, the Activity in series [5] (setting [9]) is 409,600 AU/ml; in series [5] (setting [10]), 1,638,400 AU/ml; in series [5] (setting [11]), 409,600 AU/ml; in series [5] (setting [12]), 204,800 AU/ml; in series [5] (setting [13]) it was 204,800 AU/ml. Also, the “Protein Concentration” value is 0.25 mg/mL in series [1] (setting [6]); 0.30 mg/mL in series [2] (setting [7]); 0.18 Mg/ml in series [5] (setting [8]); 0.22 Mg/ml in series [5] (setting [9]); 0.65 Mg/ml in series [5] (setting [10]); 0.22 Mg/ml in series [5] (setting [11]). Besides, the Protein Concentration in series [5] (setting [12]) and in series [5] (setting [13]) was 0.2 Mg/ml each time. For the same molecule, the “Protein increase vs. Control” value in series [1] (setting [6]) was found to be 1; in series [5] (setting [8]), 0.9; in series [5] (setting [9]) it was 1.1; in series [5] (setting [10]), 3.25; in series [5] (setting [11]), 1.1; in series [5] (setting [12]), 1. The “Protein increase vs. Control” value in series [5] (setting [13]) came to 1. Besides, the “Specific Activity” value in series [1] (setting [6]) is on record as 3,276,800 AU/mg; in series [2] (setting [7]), 5,462,666 Au/mg; in series [3], 2,184,533 AU/mg; in series [5] (setting [8]) it was 568,888 AU/mg; in series [5] (setting [9]) it was 1,861,818 AU/mg; in series [5] (setting [10]) it was 2,520,615 AU/mg. Also, the entries for the “Specific Activity” value in series [5] (setting [11]), in series [5] (setting [12]) and in series [5] (setting [13]) were 1,861,818 AU/mg, 1,024,000 AU/mg and 1,024,000 AU/mg, respectively. In addition, the mg protein/liter is recorded as 82.5 mg protein/liter in series [1] (setting [6]); 59.4 mg protein/liter in series [5] (setting [8]); 72.6 mg protein/liter in series [5] (setting [9]); 214.5 mg protein/liter in series [5] (setting [10]); “about 214.5 mg protein/liter” in series [5] (producer PVD-32 + inducer LWP-252, peptide 0.01 mg, listed as signal peptide from PVD-32); 72.6 mg protein/liter in series [5] (setting [11]). Further, the mg protein/liter in series [5] (setting [12]) and in series [5] (setting [13]) was 66 mg protein/liter throughout. Besides, the “yield of bacteriocin 50-52 versus the control” value in series [1] (signal peptide of another strain added to LWP 50-52 + LWP 320) is listed as “did not increase”. In addition, the antagonistic activity result in the series on C. jejuni and with S. enteritidis was “weak antagonistic activity” each time. Besides, the “Increase in amount of protein vs. control” value in series [2] (setting [7]) is listed as 1; in series [3], 3. Besides, the “Protein Produced from 1 liter Culture Fluid” value in series [2] (setting [7]) is given as 99 mg. The “yield of bacteriocin 760 versus control” value in series [2] (signal peptide of another strain added to LWP 760 + LWP 320) is recorded as “did not increase”. Also, the “Amount of Protein produced in One liter” value in series [3] is 225 mg. Also, in series [3], the “Concentration of Protein” value was 1.5 mg/mL. The “isoelectric point (pI)” value in series [4] is recorded as “about 7.9”. Moreover, the “production of bacteriocin OR-7 per liter of culture fluid” value in series [5] (simultaneous culture of PVD-32 and LWP-252 with signal peptide (flask and bioreactor)) is listed as 214-225 milligrams.
Regarding “TTKNYGNGVCNSVNWCQCGNVWASCNLATGCAAWLCKLA (listed as Enterococcus faecium) [bacteriocin 50-52, bacteriocin produced by Enterococcus faecium LWP 50-52]”, the “antimicrobial activity of band (zone of growth inhibition)” value in the series on Campylobacter jejuni was “corresponds to the antimicrobial activity”. Further, in series [4], the “isoelectric point (pI)” value is listed as “about 8.4”.
For “KTYYGTNGVHCTKNSLWGKVRLKNMKYDQNTTYMGRLQDILLGWATGAFGKTH (listed as Lactobacillus salivarius) [bacteriocin OR-7, bacteriocin produced by Lactobacillus salivarius PVD-32]”, the “antimicrobial activity of band (zone of growth inhibition)” value with Campylobacter jejuni is “corresponds to the antimicrobial activity”. For the same molecule, in series [4], the “isoelectric point (pI)” value is “about 8.4”.

B1: NRWYCNSAAGGVGGAAVCGLAGYVGEAKENIAGEVRKGWGMAGGFTHNKACKSFPGSGWASG (protein, listed as Streptococcus cricetus)
chain: NRWYCNSAAGGVGGAAVCGLAGYVGEAKENIAGEVRKGWGMAGGFTHNKACKSFPGSGWASG
notes: bacteriocin produced by Streptococcus cricetus LWP 760
With B1, in the series on Campylobacter jejuni, the “antimicrobial activity of band (zone of growth inhibition)” value is “corresponds to the antimicrobial activity”. For the same molecule, the “isoelectric point (pI)” value in series [4] was “about 9.5”.

These data come from patent US7354904B2, “Bacteriocin inducer peptides” (priority 2005, dated 2008).
